# Source: US20180314077A1, “DRUG SUSTAINED-RELEASING MEDICAL CONTACT LENS” (NOF CORPORATION, priority 2015, published 2018)
# Structures can show the parent of a compound that is named as a salt.
# Details: not given
# Source text: The solubility of the drug (Q) to be used in the drug sustained-releasing medical contact lens of the present invention in water may be calculated by using the following equation.
row,Molecule,Solubility in water [%]
1,C[C@@H]1C[C@H]2[C@@H]3CCC4=CC(=O)C=C[C@]4(C)[C@@]3(F)[C@@H](O)C[C@]2(C)[C@@]1(O)C(=O)COC(=O)c1cccc(S(=O)(=O)[O-])c1.[Na+] [dexamethasone sodium sulfobenzoate],0.55
2,O=C(O)Cc1ccccc1Nc1c(Cl)cccc1Cl [diclofenac sodium],0.24
3,COc1c(N2CCNC(C)C2)c(F)cc2c(=O)c(C(=O)O)cn(C3CC3)c12 (centres unmarked) [gatifloxacin],0.55
4,CC(=O)OCC(=O)[C@@]1(O)CC[C@H]2[C@@H]3CCC4=CC(=O)CC[C@]4(C)[C@H]3[C@@H](O)C[C@@]21C [hydrocortisone acetate],0.0014
5,COc1ccc2c(c1)c(CC(=O)O)c(C)n2C(=O)c1ccc(Cl)cc1 [indomethacin],0.00009
6,CCCCCCCC(=O)CC[C@@H]1[C@@H](C/C=C\CCCC(=O)OC(C)C)[C@@H](O)C[C@H]1O [isopropyl unoprostone],0.01
7,CC(C)OC(=O)CCC/C=C\C[C@@H]1[C@@H](CC[C@@H](O)CCc2ccccc2)[C@H](O)C[C@@H]1O [latanoprost],0.01
8,CCn1cc(C(=O)O)c(=O)c2cc(F)c(N3CCNC(C)C3)c(F)c21 (centres unmarked) [lomefloxacin hydrochloride],0.55
9,CN(C)CC/C=C1/c2ccccc2COc2ccc(CC(=O)O)cc21 [olopatadine hydrochloride],2.15
10,O=C(O)c1cc(O)c2c3nc4ccccc4oc-3cc(=O)c2n1 [pirenoxine],0.01
11,CC(C(=O)O)c1ccc2c(c1)Cc1cccnc1O2 (centres unmarked) [pranoprofen],0.01
12,CC(C)OC(=O)CCC/C=C\C[C@@H]1[C@@H](/C=C/C(F)(F)COc2ccccc2)[C@H](O)C[C@@H]1O [tafluprost],0.01
13,sodium azulene sulfonate hydrate,2.15
14,sodium hyaluronate,2.15

# More lines, now with the values ahead:
row,Solubility in water [%],Molecule
1,0.55,O=C(O)C(=O)Nc1cccc(-c2nnn[nH]2)c1 [acitazanolast hydrate]
2,0.16,Nc1nc2c(ncn2COCCO)c(=O)[nH]1 [acyclovir]
3,0.55,CCNC(=O)CCC/C=C\C[C@@H]1[C@@H](/C=C/[C@@H](O)CCc2ccccc2)[C@H](O)C[C@@H]1O [bimatoprost]
4,0.055,CCN[C@H]1CN(CCCOC)S(=O)(=O)c2sc(S(N)(=O)=O)cc21 [brinzolamide]
5,0.55,CCCC(=O)N1CCCN(c2nc(N)c3cc(OC)c(OC)cc3n2)CC1 [bunazosin hydrochloride]
6,0.055,CO/N=C(\C(=O)N[C@@H]1C(=O)N2C(C(=O)O)=C(CSc3nnnn3C)CS[C@H]12)c1csc(N)n1 [cefmenoxime]
7,0.01,C[C@@H]1C[C@H]2[C@@H]3CCC4=CC(=O)C=C[C@]4(C)[C@@]3(F)[C@@H](O)C[C@]2(C)[C@@]1(O)C(=O)CO [dexamethasone]
8,0.003,CC(=O)[C@@]1(O)CC[C@H]2[C@@H]3C[C@H](C)C4=CC(=O)C=C[C@]4(C)[C@@]3(F)[C@@H](O)C[C@@]21C [fluorometholone]
9,0.55,CN1CCC(=C2c3ccccc3CC(=O)c3sccc32)CC1 [ketotifen fumarate]
10,0.01,C[C@@H]1CN([C@H]2CC[C@](C#N)(c3ccc(F)cc3)CC2)CC[C@]1(C(=O)O)c1ccccc1 [levocabastine hydrochloride]
11,0.01,NC(=O)Cc1cccc(C(=O)c2ccccc2)c1N [nepafenac]
12,0.01,CCn1cc(C(=O)O)c(=O)c2cc(F)c(N3CCNCC3)cc21 [norfloxacin]
13,0.01,O=C(NC(Cc1cc(=O)[nH]c2ccccc12)C(=O)O)c1ccc(Cl)cc1 (centres unmarked) [rebamipide]
14,0.01,NC1CCN(c2nc3c(cc2F)c(=O)c(C(=O)O)cn3-c2ccc(F)cc2F)C1 (centres unmarked) [tosufloxacin tosilate hydrate]
15,0.01,COc1ccc(/C=C/C(=O)Nc2ccccc2C(=O)O)cc1OC [tranilast]
16,0.01,CC(C)OC(=O)CCC/C=C\C[C@@H]1[C@@H](/C=C/[C@@H](O)COc2cccc(C(F)(F)F)c2)[C@H](O)C[C@@H]1O [travoprost]
17,2.15,cyanocobalamin

# Same assay, conditions: water at 25° C.; 0.01 g of drug / mass of water needed for dissolving x100
row,Molecule,Solubility in water [%]
1,CC(C)c1ccc2oc3nc(N)c(C(=O)O)cc3c(=O)c2c1 [amlexanox],0.01
